In patent US7579018B2, “Microbiological control in aqueous systems” (Albemarle Corporation, priority 2000, dated 2009):

How the values were obtained:
heterotrophic bacteria = experiment: Cooling tower field trial, Example 2: heterotrophic bacteria plate counts
From the text: The effectiveness of DBDMH and of BCDMH in microbiological control in cooling tower water was investigated in comparative tests. The cooling tower consisted of two 500-ton units in a crossflow design. The total system-contained volume was 14,000 gallons, and the tower contained medium efficiency film fill. Water from the tower cooled the coils of two 300-ton air conditioners (chillers). The tower typically operated at a pH of about 9.1 and 4 cycles of concentration. Blowdown was controlled by conductivity. Make-up water consisted of softened city water and which was of good quality. The make-up water was very low in calcium (<10 mg/L) but high in pH (8.7). The alkalinity was 145 mg/L (as CaCO3), and the silica level was 28 mg/L. The tower employed a conventional polyphosphate/molybdate/phosphonate program to provide corrosion and deposit control.
The BCDMH (20 lbs) was introduced to the water using 20-gram, 1-inch tablets charged to a solid halogen feeder (Neptune model BT-40, Neptune Chemical Pump Co., Inc., Lansdale, Pa.). Before each dose, the cooling tower water was sampled and enumerated for heterotrophic bacteria plate counts. Then the tower was slug dosed three times a week with BCDMH. Slug dosing was accomplished by diverting through the feeder containing the tablets a sidestream of the recirculating water for about 1 to 5 hours until a “free chlorine” dose of about 0.5 mg/L (as “free chlorine”) was obtained. The “total chlorine” dose was measured at the same time. After each dose the cooling water was sampled and enumerated for heterotrophic bacteria plate counts. As necessary, the feeder was replenished with more BCDMH tablets.
For example, before the biocide dose the bacteria levels in the bulk water ranged from 10^5 to 10^4 CFUs/mL. After the biocide dose the bacteria levels in the bulk water were reduced to 10^4 to 10^3.
After emptying the feeder of BCDMH tablets, 20 lbs of DBDMH granules was charged into the feeder. Thereupon the same procedure as described above for the BCDMH was carried out except for the fact that is was unnecessary to add any additional DBDMH to the feeder during the 30-day test period. In fact, the total weight of DBDMH consumed during the test was only 7 lbs.

[1] = Iodometric titration of clear saturated stock solutions; assay type: physicochemical; conditions: 1 gram powder slurried in 100 mL deionized water, stirred 20 minutes, filtered
Method: Stock solutions of DBDMH and of BCDMH were prepared by slurrying 1 gram of the respective powders in 100 mL of deionized water. After stirring for 20 minutes, the insolubles were filtered to yield clear saturated stock solutions of DBDMH and BCDMH, respectively. Iodometric titration of the stock solutions using the potassium iodide-sodium thiosulfate method indicated the DBDMH solution contained 580 mg/L (as total chlorine), and the BCDMH solution contained 1100 mg/L (as total chlorine).

[2] = “free chlorine” (Hach Method 8021) and “total chlorine” (Hach Method 8167) in dosed simulated cooling water, Example 1; assay type: physicochemical; conditions: simulated cooling water pH 9.1, 38° C.
From the text: The standard tests for determination of “free chlorine” and “total chlorine” are based on classical test procedures devised by Palin in 1974. See A. T. Palin, “Analytical Control of Water Disinfection With Special Reference to Differential DPD Methods For Chlorine, Chlorine Dioxide, Bromine, Iodine and Ozone”, J. Inst. Water Eng., 1974, 28, 139. While there are various modernized versions of the Palin procedures, the version of the tests for “free chlorine” and “total chlorine” used and to be used as the standard in connection with this invention, are fully described in Hach Water Analysis Handbook, 3rd edition, copyright 1997. The procedure for “free chlorine” is identified in that publication as Method 8021 appearing on page 335, whereas the procedure for “total chlorine” is Method 8167 appearing at page 379. Briefly, the “free chlorine” test involves introducing to the halogenated water a powder comprising DPD indicator powder and a buffer. “Free chlorine” present in the water reacts with the DPD indicator to produce a red to pink coloration. The intensity of the coloration depends upon the concentration of “free chlorine” species present in the sample. This intensity is measured by a calorimeter calibrated to transform the intensity reading into a “free chlorine” value in terms of mg/L Cl2. Similarly, the “total chlorine” test also involves use of DPD indicator and buffer. In this case, KI is present with the DPD and buffer whereby the halogen species present, including nitrogen-combined halogen, reacts with KI to yield iodine species which turn the DPD indicator to red/pink. The intensity of this coloration depends upon the sum of the “free chlorine” species and all other halogen species present in the sample. Consequently, this coloration is transformed by the colorimeter into a “total chlorine” value expressed as mg/L Cl2.
DBDAH and BCDMH Test Procedure • 1. To determine the amount of species present in the water which respond to the “free chlorine” and “total chlorine” tests, the water sample should be analyzed within a few minutes of being taken, and preferably immediately upon being taken. • 2. Hach Method 8021 for testing the amount of species present in the water sample which respond to the “free chlorine” test involves use of the Hach Model DR 2010 calorimeter. The stored program number for chlorine determinations is recalled by keying in “80” on the keyboard, followed by setting the absorbance wavelength to 530 nm by rotating the dial on the side of the instrument. Two identical sample cells are filled to the 10 mL mark with the water under investigation. One of the cells is arbitrarily chosen to be the blank. Using the 10 mL cell riser, this is admitted to the sample compartment of the Hach Model DR 2010, and the shield is closed to prevent stray light effects. Then the ZERO key is depressed. After a few seconds, the display registers 0.00 mg/L Cl2. To second cell, the contents of a DPD Free Chlorine Powder Pillow are added. This is shaken for 10-20 seconds to mix, as the development of a pink-red color indicates the presence of species in the water which respond positively to the DPD test reagent. Within one minute of adding the DPD “free chlorine” reagent to the 10 mL of water in the sample cell, the blank cell used to zero the instrument is removed from the cell compartment of the Hach Model DR 2010 and replaced with the test sample to which the DPD “free chlorine” test reagent was added. The light shield is then closed as was done for the blank, and the READ key is depressed. The result, in mg/L Cl2 is shown on the display within a few seconds. This is the “free chlorine” level of the water sample under investigation. • 3. Hach Method 8167 for testing the amount of species present in the water sample which respond to the “total chlorine” test involves use of the Hach Model DR 2010 calorimeter. […]

[3] = Storage of tablets at 50° C. for 30 days, titration of active bromine, Example 24; assay type: physicochemical
From the text: 1,3-Dibromo-5,5-dimethylhydantoin was blended with micronized polyethylene wax (MPP-611) such that the blend contained 3 wt % of the wax. A sample of the blend (5 g) was introduced to a die made from Hastelloy® C alloy, and compacted to a pressure of 5000 psi. Three more samples (5 g each) were compacted in the same manner, and each time a single tablet was extracted from the die after the pressure had been released. In each case, before filling the die, its interior surfaces were lightly dusted with micronized polypropylene wax to serve as a lubricant. The tablets were manually broken into two equally-sized pieces. One half of each tablet was crushed into a powder with a mortar and pestle, and the powder was titrated to determine its wt % of active bromine. The other half of each tablet was placed in a sealed glass vial and placed in an oven at 50° C. After 30 days, the samples were removed from the oven, ground up, and titrated to determine its wt % of active bromine. For comparative purposes, a control sample of commercially produced 1,3-dibromo-5,5-dimethylhydantoin having an average particle size of about 64.5μ (containing no micronized polyethylene wax) was subjected to the same operations.
Table 16 lists the results obtained for four samples of 1,3-dibromo-5,5-dimethylhydantoin/3 wt % micronized polyethylene wax blends, along with the control sample containing no additive.

[4] = dosed to 1 mg/L as total chlorine, Time 0 hr
[5] = Time 0.5 hr, percentage of Time 0 value
[6] = Time 1 hr, percentage of Time 0 value
[7] = Time 1.5 hr, percentage of Time 0 value
[8] = Time 2 hr, percentage of Time 0 value
[9] = Time 3 hr, percentage of Time 0 value
[10] = Time 4 hr, percentage of Time 0 value
[11] = Time 5 hr, percentage of Time 0 value
[12] = Time 6 hr, percentage of Time 0 value

CC1(C)C(=O)N(Cl)C(=O)N1Br [BCDMH, N,N′-bromochloro-5,5-dimethylhydantoin, reference compound]
average reduction of heterotrophic bacterial levels in the bulk water (heterotrophic bacteria; biocide dose 0.5 mg/L “free chlorine”): 1 order of magnitude
bacteria levels in the bulk water after the biocide dose (heterotrophic bacteria; biocide dose 0.5 mg/L “free chlorine”, before dose 10^5 to 10^4 CFUs/mL): 10^4 to 10^3 CFUs/mL
Bacteria reduction (heterotrophic bacteria; slug dose 3 times/week, 0.5 ppm free Cl2, cooling tower water): 1.5-2 logs
halogen content of saturated stock solution (as total chlorine) [1]: 1100 mg/L
Free Cl2 [2, 4]: 23.1
Total Cl2 [2, 4]: 100
% hydrolysis to Free Cl2 ([2]; Time 0 hr): 23.1%
% hydrolysis to Free Cl2 ([2]; Time 0.5 hr): 24.7%
Free Cl2 [2, 5]: 25.6%
Total Cl2 [2, 5]: 104%
% hydrolysis to Free Cl2 ([2]; Time 1 hr): 23.1%
Free Cl2 [2, 6]: 23.1%
Total Cl2 [2, 6]: 100%
% hydrolysis to Free Cl2 ([2]; Time 1.5 hr): 19.4%
Free Cl2 [2, 7]: 17.9%
Total Cl2 [2, 7]: 92.3%
% hydrolysis to Free Cl2 ([2]; Time 2 hr): 18.8%
Free Cl2 [2, 8]: 16.6%
Total Cl2 [2, 8]: 88.5%
% hydrolysis to Free Cl2 ([2]; Time 3 hr): 18.8%
Free Cl2 [2, 9]: 16.6%
Total Cl2 [2, 9]: 88.5%
% hydrolysis to Free Cl2 ([2]; Time 4 hr): 38.7%
Free Cl2 [2, 10]: 30.7%
Total Cl2 [2, 10]: 79.5%
% hydrolysis to Free Cl2 ([2]; Time 5 hr): 20%
Free Cl2 [2, 11]: 15.4%
Total Cl2 [2, 11]: 76.9%
% hydrolysis to Free Cl2 ([2]; Time 6 hr): 14.3%
Free Cl2 [2, 12]: 10.2%
Total Cl2 [2, 12]: 71%

CC1(C)C(=O)N(Br)C(=O)N1Br [Control, 1,3-dibromo-5,5-dimethylhydantoin]
Wt % Active Bromine, After 30 days ([3]; sealed glass vial in oven at 50° C., 30 days): 55.2 Wt %
Wt % Active Bromine, Initial ([3]; tablet half crushed and titrated before storage): 55.3 Wt %
